Data as given in US20140363383A1, “AEROSOL FORMULATION FOR COPD” (Chiesi Farmaceutici S.p.A, priority 2009, published 2014).

Assay: Compatibility with other active ingredients, especially formoterol
Assay type: physicochemical
Conditions: versus glycopyrronium bromide

SMILES: C[N+]1(C)CCC(OC(=O)C(O)(c2ccccc2)C2CCCC2)C1.[Cl-] (stereo not shown) [glycopyrronium chloride, 3-[(cyclopentylhydroxyphenylacetyl)oxy]-1,1-dimethylpyrrolidinium chloride]
- compatibility with other active ingredients: better compatibility with other active ingredients
